# Experimental data reported in US11643474B2, “Peptide fusion protein” (KAGOSHIMA UNIVERSITY, priority 2018, dated 2023).
# Key:
# human IgG = experiment: Affinity measurement to IgG by surface plasmon resonance (BIAcore T200); assay type: binding; details: ligand immobilized onto sensor chip, HBS-EP buffer pH 7.4
# Method: The affinity analysis was performed by the following method. First, a solution containing equal amounts of 0.4 M EDC (1-ethyl-3-(3-dimethylaminopropyl)-carbodiimide) and 0.1 M sulfo-NHS (sulfo-N-hydroxysuccinimide)) was injected at a flow rate of […] onto a CMS sensor chip set in BIAcore T200 (GE healthcare), thereby activating the sensor chip. Then, under the condition of pH 5.5 (10 mM Na acetate), the purified protein (sfGFP-C-1Opt1) described above was immobilized onto the sensor chip. For the measurement, HBS-EP buffer (10 mM HEPES, 150 mM NaCl, 0.005% Tween 20, 3 mM EDTA, pH 7.4) was used, and the binding reaction was monitored by injecting 6.25, 12.5, 25, 50, 100, 200, and 400 nM human IgG for 180 seconds at a flow rate of […]. For measuring the dissociation reaction, only the buffer was injected for 600 seconds. The analysis of interaction parameters was performed using BIA evalution T100 software.
# As Comparative Example 1, a scaffold protein (sfGFP having a His tag; DNA sequence: SEQ ID NO: 40, amino acid sequence: SEQ ID NO: 41) to which an IgG-binding peptide was not fused was expressed and purified in the same manner as in Example 1, and affinity was measured.
# Proteins including two IgG-binding peptides, each consisting of the amino acid sequences represented by SEQ ID NO: 45, SEQ ID NO: 47, and SEQ ID NO: 49 (sfGFP-N C-2Opt1GS12 (DNA sequence: SEQ ID NO: 44), sfGFP-173 C-2Opt1 GS12 (DNA sequence: SEQ ID NO: 46), and sfGFP-173 C-2Opt1GS13 (DNA sequence: SEQ ID NO: 48)) were expressed and purified by the same method as in Example 1, and the affinity was measured.
# As Comparative Example 2, the affinity measurement of the peptide (amino acid sequence: SEQ ID NO: 18) prepared by chemical synthesis was carried out in the same manner as in Example 1.
# [1] = test system: human serum-derived γ-globulin; experiment: Dynamic binding capacity (DBC) measurement on ligand-immobilized NHS-activated prepack column; details: 1 mL column; 1 mg/mL γ-globulin at 1 mL/min; 10% breakthrough at 280 nm; equimolar ligand (7.3 mg protein or 0.5 mg peptide)
# Method: To examine whether the IgG-binding peptide divalent fusion protein can be used as an affinity ligand for human antibody purification, the protein prepared in Example 2 (sfGFP-173 C-2Opt1 GS12) was immobilized on an NHS-activated prepack column (GE Healthcare), and the adsorption performance was evaluated. The protein-immobilized column was prepared by the following method. A syringe was used to feed the solution.
# 5 mL of 1 mM hydrochloric acid was fed to a NHS-activated prepack column with a volume of 1 mL to remove the isopropanol solution in the column. Then, 1 mL of a coupling solution (200 mM carbonate buffer, 500 mM sodium chloride, pH 8.3) containing 7.3 mg of an IgG-binding peptide fusion protein was fed and immobilized at room temperature for 1 hour. The unreacted NHS ester was blocked by adding tris-hydroxymethylaminomethane. Finally, 5 mL of an adsorption solution (20 mM phosphate buffer, 150 mM sodium chloride, pH 7.4) was fed and used for DBC measurement.
# The DBC measurement was performed using a liquid chromatography instrument AKTAexplore (GE Healthcare). […] The DBC was determined from the amount of the sample fed until the value of an absorbance at 280 nm excluding the non-adsorbed component reached 10% of the absorbance of the entire sample. […]
sequence,measurement,setting,value
"GPDCAYHRGELVWCTFH [Comparative Example 2, reference compound]",kon,human IgG; 6.25-400 nM human IgG injected 180 s,330000 M⁻¹ s⁻¹
same,koff,human IgG; buffer only injected 600 s for dissociation,0.0048 s⁻¹
same,Kd,human IgG; human IgG as analyte,14 nM
same,DBC (dynamic binding capacity),[1],6.9 mg/mL-column
